Results from US7157487B2, “Vla-4 inhibitors” (Daiichi Pharmaceutical Co., Ltd., priority 2000, dated 2007).

Legend:
[1] = Pharmacokinetics and oral bioavailability in rats; format: in vivo; conditions: Rat, oral, plasma; for AUC: LC/MS/MS; for bioavailability: read-out: F (%) oral bioavailability; for clearance: read-out: CLtot (mL/min/kg) apparent plasma clearance
Source text: (§1) The pharmacokinetic parameter of the test compound orally administered to rats or dogs are described below.

[2] = Pharmacokinetics and oral bioavailability in dogs; format: in vivo; conditions: 2 /kg, Dog, oral, Dose/kg 2.0, plasma; for AUC: LC/MS/MS; for bioavailability: read-out: F (%) oral bioavailability; for clearance: read-out: CLtot (mL/min/kg) apparent plasma clearance
Source text: as §1

[3] = target: T1, integrins haα4 and β1 (VLA-4) expressed on CHO cells (Homo sapiens, UniProt P05556+P13612); assay: In vitro Evaluation Test (1): binding of Eu3+-hVCAM-1 D1D7-IgG to CHO cells expressing integrins α4 and β1; conditions: inhibition of Eu3+-hVCAM-1 D1D7-IgG binding to CHO cells expressing α4β1; Ki calculated from IC50
T1 construct: expressed in transfected cells; host or cells: CHO cells
T1 sequence (P13612 34-1032): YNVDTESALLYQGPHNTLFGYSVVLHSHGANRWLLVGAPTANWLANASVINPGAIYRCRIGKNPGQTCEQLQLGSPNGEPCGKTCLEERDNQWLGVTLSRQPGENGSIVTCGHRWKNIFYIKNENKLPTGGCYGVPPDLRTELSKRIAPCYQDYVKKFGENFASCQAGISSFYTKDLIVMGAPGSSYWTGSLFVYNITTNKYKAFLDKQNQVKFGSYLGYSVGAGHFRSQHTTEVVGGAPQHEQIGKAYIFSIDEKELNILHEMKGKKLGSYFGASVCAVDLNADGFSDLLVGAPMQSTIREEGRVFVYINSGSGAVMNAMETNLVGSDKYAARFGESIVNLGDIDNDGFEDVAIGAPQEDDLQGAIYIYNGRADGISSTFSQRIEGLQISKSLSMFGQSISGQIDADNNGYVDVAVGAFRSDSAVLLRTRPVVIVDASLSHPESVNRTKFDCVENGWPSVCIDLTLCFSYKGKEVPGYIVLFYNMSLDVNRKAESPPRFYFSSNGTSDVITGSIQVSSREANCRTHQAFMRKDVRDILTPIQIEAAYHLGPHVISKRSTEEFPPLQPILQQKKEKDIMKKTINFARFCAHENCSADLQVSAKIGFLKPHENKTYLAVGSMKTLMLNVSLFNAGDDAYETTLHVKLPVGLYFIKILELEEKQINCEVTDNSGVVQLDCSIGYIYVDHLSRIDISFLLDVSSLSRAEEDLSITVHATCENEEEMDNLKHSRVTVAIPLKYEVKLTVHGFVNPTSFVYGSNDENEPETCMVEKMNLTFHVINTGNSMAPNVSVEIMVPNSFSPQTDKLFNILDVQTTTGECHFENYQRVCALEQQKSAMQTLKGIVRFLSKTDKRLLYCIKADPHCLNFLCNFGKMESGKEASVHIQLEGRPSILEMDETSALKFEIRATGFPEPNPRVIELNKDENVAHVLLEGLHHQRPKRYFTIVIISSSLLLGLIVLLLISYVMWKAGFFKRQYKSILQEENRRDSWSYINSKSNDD
T1 sequence (P05556 21-798): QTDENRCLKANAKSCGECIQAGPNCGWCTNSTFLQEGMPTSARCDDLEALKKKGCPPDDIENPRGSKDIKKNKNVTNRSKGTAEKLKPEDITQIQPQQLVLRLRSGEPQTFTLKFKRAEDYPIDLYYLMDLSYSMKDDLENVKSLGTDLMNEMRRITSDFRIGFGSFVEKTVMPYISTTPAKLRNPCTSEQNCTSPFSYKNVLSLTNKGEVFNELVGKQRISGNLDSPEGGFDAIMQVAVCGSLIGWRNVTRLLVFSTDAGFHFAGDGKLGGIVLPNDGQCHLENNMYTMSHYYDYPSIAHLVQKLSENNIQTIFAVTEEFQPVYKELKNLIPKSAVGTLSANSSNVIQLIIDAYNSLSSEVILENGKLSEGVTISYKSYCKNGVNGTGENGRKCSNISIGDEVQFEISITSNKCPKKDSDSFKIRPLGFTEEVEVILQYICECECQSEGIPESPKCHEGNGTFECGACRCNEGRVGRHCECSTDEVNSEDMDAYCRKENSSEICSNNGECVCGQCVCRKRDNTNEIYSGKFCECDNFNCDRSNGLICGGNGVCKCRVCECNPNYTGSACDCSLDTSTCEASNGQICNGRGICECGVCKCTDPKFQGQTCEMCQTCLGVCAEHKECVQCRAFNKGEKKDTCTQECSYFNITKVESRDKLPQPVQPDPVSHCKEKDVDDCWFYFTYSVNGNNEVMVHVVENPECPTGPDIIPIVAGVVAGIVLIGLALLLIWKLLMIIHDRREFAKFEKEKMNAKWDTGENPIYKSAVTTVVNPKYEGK
Procedure, shortened: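 CHO cells transduced with human α4 and β1 were grown for 2 days. They were incubated 1 h at room temperature with Eu3+-hVCAM-1 D1D7-IgG (diluted to 2 nM before addition) and compound, with or without 6% HSA, in HEPES pH 7.5 containing Ca2+, Mg2+ and 4 mM Mn2+. Time-resolved fluorescence gave IC50; Ki used a Scatchard-derived Kd (0.06–20 nM).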

[4] = Evaluation of oral bioavailability by mouse bioassay; format: in vivo; conditions: 10 mg/kg oral, female Balb/C mice, serum 15 minutes after administration, read-out: Blood level
Procedure: A test compound was suspended or dissolved in a proper administration medium to give a concentration of 1 mg/ml. To 7 to 9 week old female Balb/C mice, 10 mg/kg of the resulting suspension or solution was orally administered. Fifteen minutes after the administration, blood was collected from the postcava under anesthesia with ether and the serum was separated from it. The concentration of each test compound was determined by estimating the serum level from a calibration curve obtained with VCAM-1/VLA-4 inhibitory activity as an index or measuring the concentration by using LC/MS/MS.

[5] = test system: VLA-4 expressed cells; conditions: literature report; cited from earlier work
[6] = test system: cardiac transplantation of rabbits; conditions: literature report; cited from earlier work
[7] = target: VLA-4 (Homo sapiens, UniProt P05556+P13612); conditions: in vitro, literature report; cited from earlier work
Chain of VLA-4 (P13612 34-1032): as the sequence (P13612 34-1032) above
Chain of VLA-4 (P05556 21-798): as the sequence (P05556 21-798) above

CO[C@H]1C[C@@H](COC2CCC(C(=O)O)CC2)N(C(=O)Cc2ccc3nc(Nc4ccccc4C)oc3c2)C1 (single isomer, unassigned) [20 (Isomer A)]
AUC ([1]; 2 /kg, Dose/kg 2.0): 0.152 µg·h/mL | bioavailability ([1]; 2 /kg, Dose/kg 2.0): 35% | clearance ([1]; 2 /kg, Dose/kg 2.0): 73 mL/min/kg | AUC [2]: 0.776 µg·h/mL | bioavailability [2]: 44% | clearance [2]: 19.1 mL/min/kg

Cc1ccccc1Nc1nc2ccc(CC(=O)N3C[C@@H](F)C[C@H]3COC3CCC(C(=O)O)CC3)cc2o1 (single isomer, unassigned) [21 (Isomer H)]
Ki [3]: 2.5 nM | AUC ([1]; 5 /kg, Dose/kg 5.0): 14.9 µg·h/mL | bioavailability ([1]; 5 /kg, Dose/kg 5.0): 52% | clearance ([1]; 5 /kg, Dose/kg 5.0): 3.3 mL/min/kg | AUC [2]: 0.76 µg·h/mL | bioavailability [2]: 40% | clearance [2]: 17.9 mL/min/kg

COC[C@H]1CC[C@@H](CO[C@H]2CC[C@H](C(=O)O)CC2)N1C(=O)Cc1cc(Cl)c(NC(=O)c2cn(C)c3ccccc23)cc1F [Example 164, trans-4-(1-((5-Chloro-2-fluoro-4-((1-methyl-3-indolylcarbonyl)amino)phenyl)acetyl)-(5R)-methoxymethyl-(2S)-pyrrolidinylmethoxy)cyclohexanecarboxylic acid]
Ki [3]: 6.4 nM | concentration at 15 min [4]: 2.3 µg/mL

COC[C@H]1CC[C@@H](CO[C@H]2CC[C@@H](C(=O)O)CC2)N1C(=O)Cc1ccc2nc(Nc3cc(F)ccc3C)oc2c1F [Example 165, trans-4-(1-((2-(5-Fluoro-2-methylphenylamino)-7-fluoro-6-benzoxazolyl)acetyl)-(5R)-methoxymethyl-(2S)-pyrrolidinylmethoxy)cyclohexanecarboxylic acid]
Ki [3]: 2.9 nM | concentration at 15 min [4]: 0.816 µg/mL

COC[C@H]1CC[C@@H](CO[C@H]2CC[C@H](C(=O)O)CC2)N1C(=O)Cc1cc(Cl)c(NC(=O)c2nn(C)c3ccccc23)cc1F [Example 166, trans-4-(1-((5-Chloro-2-fluoro-4-((1-methyl-3-indazolylcarbonyl)amino)phenyl)acetyl)-(5R)-methoxymethyl-(2S)-pyrrolidinylmethoxy)cyclohexanecarboxylic acid]
Ki [3]: 7.9 nM | concentration at 15 min [4]: 3.07 µg/mL

CO[C@H]1CCN(C(=O)Cc2cc(Cl)c(NC(=O)c3nn(C)c4ccccc34)cc2F)[C@@H]1CO[C@H]1CC[C@H](C(=O)O)CC1 [Example 169, trans-4-(1-((5-Chloro-2-fluoro-4-((1-methyl-3-indazolylcarbonyl)amino)phenyl)acetyl)-(3S)-methoxy-(2R)-pyrrolidinylmethoxy)cyclohexanecarboxylic acid]
Ki [3]: 16 nM | concentration at 15 min [4]: 21.8 µg/mL

CO[C@H]1C[C@@H](CO[C@H]2CC[C@H](C(=O)O)CC2)N(C(=O)Cc2cc(Cl)c(NC(=O)c3cn(C)c4ccccc34)cc2Cl)C1 [Example 170, trans-4-(1-(2,5-Dichloro-4-((1-methyl-1H-3-indolylcarbonyl)amino)phenylacetyl)-(4S)-methoxy-(2S)-pyrrolidinylmethoxy)cyclohexanecarboxylic acid]
Ki [3]: 4.3 nM | concentration at 15 min [4]: 3.36 µg/mL

CO[C@H]1C[C@@H](CO[C@H]2CC[C@H](C(=O)O)CC2)N(C(=O)Cc2cc(Cl)c(NC(=O)c3nsc4ccccc34)cc2F)C1 [Example 171, trans-4-(1-(5-Chloro-2-fluoro-4-((3-benzo(d)isothiazolylcarbonyl)amino)phenylacetyl)-(4S)-methoxy-(2S)-pyrrolidinylmethoxy)cyclohexanecarboxylic acid]
Ki [3]: 5 nM | concentration at 15 min [4]: 2.73 µg/mL

O=C(Nc1cc(F)c(CC(=O)N2C[C@@H](F)C[C@H]2CO[C@H]2CC[C@H](C(=O)O)CC2)cc1Cl)c1n[nH]c2ccccc12 [Example 172, trans-4-(1-((5-Chloro-2-fluoro-4-(3-indazolylcarbonylamino)phenyl)acetyl)-(4S)-fluoro-(2S)-pyrrolidinylmethoxy)cyclohexanecarboxylic acid]
Ki [3]: 6.8 nM | concentration at 15 min [4]: 0.848 µg/mL

CC(C)[C@H]1CC[C@@H](CO[C@H]2CC[C@H](C(=O)O)CC2)N1C(=O)Cc1cc(Cl)c(NC(=O)c2cn(C)c3ccccc23)cc1F [Example 173, trans-4-(1-((5-Chloro-2-fluoro-4-((1-methyl-3-indolylcarbonyl)amino)phenyl)acetyl)-(5R)-isopropyl-(2S)-pyrrolidinylmethoxy)cyclohexanecarboxylic acid]
Ki [3]: 10 nM | concentration at 15 min [4]: 3.47 µg/mL

CQIDSPC
inhibition of adhesion of VLA-4 expressed cells to purified VCAM-1 [5]: succeeded in inhibiting adhesion

phenylacetic acid-Leu-Asp-Phe-d-Pro-amide [synthetic CS-1 tetrapeptide]
advance of coronary arterial diseases [6]: amelioration of advance of coronary arterial diseases | inhibition of leukocyte adhesion mediated by VLA-4 [7]: in vitro inhibition
